Measured values taken from publication PMC1790702, “Non-Metabolic Membrane Tubulation and Permeability Induced by Bioactive Peptides” (PLoS ONE, 2007).
Read-outs that look alike come from different tables or passages of the source.

Assays:
[1] = LUV aggregation by turbidimetry; conditions: for Peptide/Lipid ratio at which LUVs are aggregated efficiently: discussion, from figure 5; for P/L ratio at which LUV aggregation decreases / P/L ratio at the plateau of LUV aggregation: HEPES 10 mM pH 7.4, 20 min; for P/L ratio at which LUV aggregation decreases / Peptide/lipid mass ratio (P/L) at which LUV aggregation starts / P/L ratio at the plateau of LUV aggregation: 25°C; for P/L ratio at which LUV aggregation decreases: peak-like profile; for Peptide/lipid mass ratio (P/L) at which LUV aggregation starts: turbidity, absorbance at 340 nm, 10 µg LUVs in 500 µl HEPES 10 mM pH 7.4, 20 min after peptide addition
Protocol: (§1) Large unilamellar vesicles (LUV) were prepared by extrusion through a polycarbonate filter (pore diameter 100 nm) in an extrusion device from Avestin as described in [38]. To obtain calcein loaded LUVs, at 2 mg/ml lipid concentration (PC/PG/ [^14C] PC 9/1/0.01 mol ratio), a solution in chloroform was dried under a gentle stream of nitrogen and maintained under vacuum for at least 2 h to ascertain removal of residual solvent. Then, the dried lipid film was hydrated with 1 ml of 70 mM calcein solution in HEPES 10 mM pH 7.4, vigorously vortexed and extruded. Free calcein was separated by passing the suspension trough two gel filtration columns in tandem (Econo-Pac 10 DG, Bio-Rad). The final lipid concentration was quantified measuring the [^14C] PC radiactivity with a liquid scintillation counter LS 6000 SC (Beckman Coulter France).
LUVs aggregation was monitored by turbidimetry (absorbance at 340 nm) in a Cary spectrophotometer (Varian) as described. Peptides were added to a 500 µl quartz cuvette containing 10 µg of LUVs in a HEPES 10 mM pH 7.4 buffer and the absorbance was followed during 20 min after peptide exposure. At this time, membrane aggregation attained the plateau.

[2] = test system: Annexin 2-GFP transfected MDCK cells; assay: Cell permeability, Ca2+ influx monitored by Annexin 2-GFP movement; format: cell-based; conditions: for Permeability towards ions at high peptide concentration: 100 µM peptide; for Permeability towards ions at high peptide concentration / Ca2+ influx and mobilization of annexin 2 from cytosol to the plasma membrane: Annexin 2-GFP MDCK cells; for Cell permeabilization: monitored by calcium permeability inducing annexin 2 movement in MDCK cells; for Ca2+ influx and mobilization of annexin 2 from cytosol to the plasma membrane: 10 µM peptide, in 10 minutes
Protocol: (§2) Annexin 2-GFP expression vector was a kind gift of Dr Stephen Moss (London UK). The annexin2-GFP transfected MDCK cloning will be published elsewhere. MDCK cells were cultured as described. Peptides were added at different concentrations and the annexin-GFP fluorescence was followed in a Zeiss inverted microscope. Films were acquired with Metamorph software. Cytotoxicity in CHO cells was evaluated using the CCK8 cell counting kit (Dojindo Laboratories). Briefly, cell suspension (100 µl, 1500 CHO cells per well) were seeded in DMEM plus 10 % FCS in 96-well microtiter plate at 37°C. 10 µl of peptides were added twice to the cells after 24 and 48 hours of cell culture to obtain concentrations of 1, 10, 20 and 50 µM and the toxicity was evaluated 48 after treatment.

[3] = Calcein leakage from LUVs; conditions: 25°C; for Calcein release: peptide/lipid ratio of 1/2, LUVs PC/PG/[14C]PC 9/1/0.01, 70 mM calcein, HEPES 10 mM pH 7.4, 5 min after peptide addition, fluorescence, relative to lysis with 1% Triton X-100
Protocol: as §1
The release of calcein after 5 minutes of peptide exposure to LUVs was measured by spectrofluorimetry (Varian eclipse) at excitation and emission wavelengths of 490 nm and 500–650 nm, respectively. […] Leakage was expressed as a percent relative of the total amount of dye released by LUVs lysis with 1% Triton X-100, according to equation: % release = 100×(F(t)−F0)/(FT−F0). F(t) is the fluorescence intensity at time t, F0 is the fluorescence intensity before peptide addition and FT the fluorescence intensity after LUVs lysis.

[4] = Small angle X-ray scattering of multilamellar vesicles, electron density profiles; format: physicochemical; conditions: for S^−1 (repeat distance), Ld1 phase / S^−1 (repeat distance), Ld2 phase: 5 mM HEPES pH 7.4, 20°C; for dwater (thickness of the hydration layer), Ld2 phase: peptide-free 2.19; for dwater (thickness of the hydration layer), Ld1 phase: peptide-free 2.23; for dbilayer (thickness of the membrane bilayer), Ld1 phase: peptide-free 3.90; for Change of bilayer thickness, Ld1 phase / Change of membrane thickness, Ld2 phase: versus peptide-free PC/PG (9/1) MLVs, P/L 1/20 (w/w)
Protocol: Briefly, samples for SAXS examination were prepared by dissolving dry lipids in chloroform/methanol (2/1, vol/vol) and mixing to obtain the indicated proportions. The solvent was subsequently evaporated under a stream of oxygen-free dry nitrogen at 45°C and traces of solvent removed by a storage under high vacuum for 2 days. In order to obtain the Multiple Lamellar Vesicles (MLVs) the dry lipids were hydrated with an equal weight of buffer (5 mM HEPES pH 7.4). The aqueous lipid dispersion was thoroughly stirred to obtain a homogeneous dispersion, sealed under argon and kept until examination at 4°C. For X-ray measurements, lipid samples (∼20 µl) were deposited between two thin mica windows and mounted on a programmable thermal stage (Linkam, UK). The temperature was monitored by a thermocouple (Quad Service, Poissy, France) inserted directly into the lipid dispersion. Samples were exposed for 30 seconds to the beam (1.5 Å wavelength). The SAXS quadrant detector response was corrected for the uneven channel response using a static radioactive […] and S was calibrated for d-spacing using hydrated rat tail collagen. Information on the setup, calibration, and facilities are available on the station web site (http://www.srs.dl.ac.uk/ncd/station82/description.html).
The electron density profiles of lipid bilayers were obtained by Fourier synthesis of x-ray diffraction patterns. Integrated densities were derived from five diffraction orders (estimated spatial resolution <0.12 nm) by measuring the area under each diffraction peak separated and integrated using the software Peakfit (Seasolve).

[5] = Membrane deformations on giant unilamellar vesicles, phase contrast video-microscopy
Protocol: Giant unilamellar vesicles (GUVs) were obtained by electroformation as described in [49]. Briefly, 1.5 µl of PC/PG (9/1, w/w) solution (0.4 mg/ml in chloroform/methanol 9/1) were spread on each platinum electrode. The lipid film was dried for half an hour under a gentle stream of nitrogen. The chamber was placed in an inverted microscope (Zeiss Axiovert 200M) and a thermocouple positioned to monitor the temperature (25°C). The electrodes were then completely hydrated with 2 ml of a low ionic strength buffer (HEPES 0.5 mM, pH 7.4 and conductivity 20 µS/cm). Immediately after buffer addition, a low frequency alternating field (5 Hz and 1 V) was applied on the electrodes for at least 2 hours. GUVs of diameter between 10 to 100 µm were observed. […] The observation temperature was 25°C.

CHO cells = assay: Cytotoxicity, CCK8 cell counting kit; format: cell-based; conditions: for Lethality: after 48 hours of incubation of CHO cells with 10 µM peptides, CCK8, DMEM plus 10 % FCS, 37°C
Protocol: as §2

[6] = Tryptophan fluorescence, membrane binding; conditions: excitation 280 nm, PC/PG (9/1) LUVs, 25°C
Protocol: Tryptophan fluorescence was measured following the recommendations described in [51]. Excitation wavelength was 280 nm, and emission spectrum was collected (290–600 nm). Excitation and emission slits were 6 nm and 5 nm respectively. A cross-oriented configuration of the polarizer (Expol = 90°, Empol = 0°) was used in order to reduce LUVs diffusion artefacts.

[7] = PC/PG (9/1) MLVs, peptide/lipid 1/20 (w/w)
[8] = PC/PG (9/1) MLVs, peptide/lipid 1/20 (w/w), 20°C
[9] = PC/PG (9/1) MLVs, peptide/lipid 1/20 (w/w), 20°C, peptide-free 3.62

Substance	Permeability towards ions at high peptide concentration [2]	Cell permeabilization [2]	Calcein release [3] [%]	S^−1 (repeat distance), Ld1 phase [4, 7] [nm]	S^−1 (repeat distance), Ld2 phase [4, 7] [nm]	dwater (thickness of the hydration layer), Ld2 phase [4, 8] [nm]	dwater (thickness of the hydration layer), Ld1 phase [4, 8] [nm]	dbilayer (thickness of the membrane bilayer), Ld1 phase [4, 8] [nm]	Change of bilayer thickness, Ld1 phase ([4]; 20°C) [Å]	Lethality (CHO cells) [%]	P/L ratio of peptide-membrane saturation (maximal shift in emission wavelength) [6]	Peptide/Lipid ratio at which LUVs are aggregated efficiently [1]	P/L ratio at which LUV aggregation decreases ([1]; turbidity at 340 nm)	Peptide/lipid mass ratio (P/L) at which LUV aggregation starts [1]	dbilayer (thickness of the membrane bilayer), Ld2 phase [4, 9] [nm]	P/L ratio at the plateau of LUV aggregation ([1]; turbidity at 340 nm)	Time for growing micro-tubes to invade the entire vesicle internal volume ([5]; GUVs PC/PG 9/1, 25°C)	Ca2+ influx and mobilization of annexin 2 from cytosol to the plasma membrane [2]	Change of membrane thickness, Ld2 phase ([4]; 20°C)	other results
RPKPQQFFGLM-NH2 [SP, Substance P, neuromodulator, primary amphipathic peptide, free N-terminal amino group, reference compound]	did not induce any increase in permeability towards ions	no	8	5.96	5.75	2.21	2.34	3.62	−2.8	0										LUV aggregation ([1]; turbidity at 340 nm, HEPES 10 mM pH 7.4, 25°C): does not aggregate LUVs; dbilayer (thickness of the membrane bilayer), Ld2 phase [4]: 3.54 nm; GUV morphology at high peptide concentration ([5]; after 6 hours of incubation, 50 µl of peptide solution at 0.5 mM in 2 ml of buffer): did not perturb GUVs morphology
RRWWRRWRR-NH2 [RW9, short secondary amphipathic polyarginine-tryptophane peptide, free N-terminal amino group]	did not induce any increase in permeability towards ions	no	7	5.96	5.74	2.19	2.33	3.63	−2.7	0	1/15	1/30	1/10	1/35	3.55					
RRRRRRRRR-NH2 [R9, Polyarginine, cell-penetrating peptide, nine arginines, free N-terminal amino group, reference compound]	did not induce any increase in permeability towards ions	no	8							0		1/50		1/80		1/45	less than 20 minutes			
RRWRRWWRRWWRRWRR-Bi [RW16, secondary amphipathic polyarginine-tryptophane peptide with biotin (Bi) on N-terminus]		yes	14	6.08	5.89	2.18	2.25	3.83		0	1/10		1/10	around 1/25	3.71			provoked the Ca^2+ influx	0.9 Å	
RQIKIWFQNRRMKWKK-NH2 [pAntp, Penetratin, cell-penetrating peptide, basic, non-amphipathic, 16 residues, reference compound]	did not induce any increase in permeability towards ions	no	11	6.06	5.94	2.31	2.28	3.78		0	1/10	1/20		1/25	3.63	1/15	less than 20 minutes			
RRLRRLLRRLLRRLRR-Bi [RL16, secondary amphipathic polyarginine-leucine peptide with biotin (Bi) on N-terminus]		yes	38	6.20	6.01	2.26	2.27	3.93		55			1/10	around 1/25	3.75			provoked the Ca^2+ influx	+1.3 Å	P/L ratio at which a significant calcein release from LUVs is induced ([3]; 5 min after peptide addition): 1/5; GUV integrity ([5]; GUVs PC/PG 9/1, 25°C): complete GUV destruction after few seconds; Cell toxicity (CHO cells; CHO cells, 48 hours of peptide incubation): the only toxic peptide
